In the supplement of paper PMC10307832 one finds relative viability data, which are given here for 5 cell lines.

Assay in all cases: relative viability (nuclei count vs DMSO), 5 days (fraction); higher = more cells survive
Compound in the experiment “Alisertib + Palbociclib”: COc1cc(Nc2ncc3c(n2)-c2ccc(Cl)cc2C(c2c(F)cccc2OC)=NC3)ccc1C(=O)O [Alisertib] + CC(=O)c1c(C)c2cnc(Nc3ccc(N4CCNCC4)cn3)nc2n(C2CCCC2)c1=O [Palbociclib] (partner 0.5 µM)
The procedure, abridged: (§1)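 Five library-drug doses in √10 steps were combined with a fixed anchor-drug dose, or a single drug was given alone, by pin tool to lung cancer cell lines in 1536-well plates the day after seeding. Nuclei were stained and counted after 5 days. Relative viability is the nuclei count in treated wells over that in vehicle wells, taken as the median of duplicate plates.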

Compound in the experiment “Alisertib + Crizotinib”: COc1cc(Nc2ncc3c(n2)-c2ccc(Cl)cc2C(c2c(F)cccc2OC)=NC3)ccc1C(=O)O [Alisertib] + C[C@@H](Oc1cc(-c2cnn(C3CCNCC3)c2)cnc1N)c1c(Cl)ccc(F)c1Cl [Crizotinib] (partner 1 µM)
An outline of the steps: as §1

Compound in the experiment “Alisertib + AZD7762”: COc1cc(Nc2ncc3c(n2)-c2ccc(Cl)cc2C(c2c(F)cccc2OC)=NC3)ccc1C(=O)O [Alisertib] + NC(=O)Nc1cc(-c2cccc(F)c2)sc1C(=O)N[C@H]1CCCNC1 [AZD7762] (partner 0.2 µM)
The procedure, abridged: as §1

Compound in the experiment “Alisertib + Vorinostat”: COc1cc(Nc2ncc3c(n2)-c2ccc(Cl)cc2C(c2c(F)cccc2OC)=NC3)ccc1C(=O)O [Alisertib] + O=C(CCCCCCC(=O)Nc1ccccc1)NO [Vorinostat] (partner 1 µM)
An outline of the steps:
as §1

In the case of NCI-H650, the relative viability with Alisertib + Palbociclib (first compound 0.005 µM) was 0.326; in the experiment with Alisertib + Palbociclib (first compound 0.01581 µM), 0.327; in the experiment with Alisertib + Palbociclib (first compound 0.05 µM) it was 0.191; in the experiment with Alisertib + Palbociclib (first compound 0.1581 µM) it was 0.159; with Alisertib + Palbociclib (first compound 0.5 µM), 0.163; with Alisertib + Crizotinib (first compound 0.005 µM) it was 0.773. Moreover, the relative viability with Alisertib + Crizotinib (first compound 0.01581 µM) came out at 0.55; in the experiment with Alisertib + Crizotinib (first compound 0.05 µM), 0.28; with Alisertib + Crizotinib (first compound 0.1581 µM), 0.239; with Alisertib + Crizotinib (first compound 0.5 µM) it was 0.23; with Alisertib + AZD7762 (first compound 0.005 µM), 0.772; in the experiment with Alisertib + AZD7762 (first compound 0.01581 µM), 0.738. The relative viability in the experiment with Alisertib + AZD7762 (first compound 0.05 µM) was found to be 0.37; in the experiment with Alisertib + AZD7762 (first compound 0.1581 µM), 0.255; in the experiment with Alisertib + AZD7762 (first compound 0.5 µM), 0.259; with Alisertib + Vorinostat (first compound 0.005 µM), 0.263; with Alisertib + Vorinostat (first compound 0.01581 µM), 0.414; with Alisertib + Vorinostat (first compound 0.05 µM), 0.144. In addition, the relative viability with Alisertib + Vorinostat (first compound 0.1581 µM) came out at 0.17; in the experiment with Alisertib + Vorinostat (first compound 0.5 µM) it was 0.131.

Regarding NCI-H727, the relative viability with Alisertib + Palbociclib (first compound 0.005 µM) came out at 0.565; in the experiment with Alisertib + Palbociclib (first compound 0.01581 µM) it was 0.647; in the experiment with Alisertib + Palbociclib (first compound 0.05 µM) it was 0.534; with Alisertib + Palbociclib (first compound 0.1581 µM), 0.483; in the experiment with Alisertib + Palbociclib (first compound 0.5 µM), 0.474; in the experiment with Alisertib + Crizotinib (first compound 0.005 µM) it was 0.691. Also, the relative viability was found to be 0.675 in the experiment with Alisertib + Crizotinib (first compound 0.01581 µM); 0.361 with Alisertib + Crizotinib (first compound 0.05 µM); 0.315 in the experiment with Alisertib + Crizotinib (first compound 0.1581 µM); 0.267 with Alisertib + Crizotinib (first compound 0.5 µM); 0.618 with Alisertib + AZD7762 (first compound 0.005 µM); 0.586 in the experiment with Alisertib + AZD7762 (first compound 0.01581 µM). Besides, the relative viability with Alisertib + AZD7762 (first compound 0.05 µM) stood at 0.591; with Alisertib + AZD7762 (first compound 0.1581 µM), 0.398; in the experiment with Alisertib + AZD7762 (first compound 0.5 µM) it was 0.326; with Alisertib + Vorinostat (first compound 0.005 µM) it was 1.19; in the experiment with Alisertib + Vorinostat (first compound 0.01581 µM) it was 0.986; in the experiment with Alisertib + Vorinostat (first compound 0.05 µM) it was 0.939. For the same cell line, the relative viability with Alisertib + Vorinostat (first compound 0.1581 µM) is 0.471; in the experiment with Alisertib + Vorinostat (first compound 0.5 µM), 0.561.

On to NCI-H838, for which the relative viability with Alisertib + Palbociclib (first compound 0.005 µM) came to 0.189; in the experiment with Alisertib + Palbociclib (first compound 0.01581 µM), 0.291; with Alisertib + Palbociclib (first compound 0.05 µM) it was 0.177; in the experiment with Alisertib + Palbociclib (first compound 0.1581 µM) it was 0.154; with Alisertib + Palbociclib (first compound 0.5 µM), 0.132; in the experiment with Alisertib + Crizotinib (first compound 0.005 µM), 0.821. Moreover, the relative viability in the experiment with Alisertib + Crizotinib (first compound 0.01581 µM) stood at 0.727; with Alisertib + Crizotinib (first compound 0.05 µM), 0.281; in the experiment with Alisertib + Crizotinib (first compound 0.1581 µM), 0.218; with Alisertib + Crizotinib (first compound 0.5 µM) it was 0.186; with Alisertib + AZD7762 (first compound 0.005 µM), 0.943; with Alisertib + AZD7762 (first compound 0.01581 µM), 0.852. Further, the relative viability with Alisertib + AZD7762 (first compound 0.05 µM) is 0.715; with Alisertib + AZD7762 (first compound 0.1581 µM), 0.669; with Alisertib + AZD7762 (first compound 0.5 µM), 0.626; with Alisertib + Vorinostat (first compound 0.005 µM), 0.597; in the experiment with Alisertib + Vorinostat (first compound 0.01581 µM), 0.461; with Alisertib + Vorinostat (first compound 0.05 µM), 0.294. The relative viability was found to be 0.185 in the experiment with Alisertib + Vorinostat (first compound 0.1581 µM) and 0.197 with Alisertib + Vorinostat (first compound 0.5 µM).

In the case of NCI-H1355, the relative viability in the experiment with Alisertib + Palbociclib (first compound 0.005 µM) is 0.362; in the experiment with Alisertib + Palbociclib (first compound 0.01581 µM), 0.393; with Alisertib + Palbociclib (first compound 0.05 µM), 0.37; with Alisertib + Palbociclib (first compound 0.1581 µM) it was 0.291; with Alisertib + Palbociclib (first compound 0.5 µM), 0.142; with Alisertib + Crizotinib (first compound 0.005 µM) it was 1.08. The relative viability with Alisertib + Crizotinib (first compound 0.01581 µM) is 0.906; in the experiment with Alisertib + Crizotinib (first compound 0.05 µM), 0.737; with Alisertib + Crizotinib (first compound 0.1581 µM) it was 0.215; with Alisertib + Crizotinib (first compound 0.5 µM), 0.186; with Alisertib + AZD7762 (first compound 0.005 µM) it was 0.707; with Alisertib + AZD7762 (first compound 0.01581 µM) it was 0.641. Also, the relative viability with Alisertib + AZD7762 (first compound 0.05 µM) came to 0.364; in the experiment with Alisertib + AZD7762 (first compound 0.1581 µM), 0.168; with Alisertib + AZD7762 (first compound 0.5 µM) it was 0.146; with Alisertib + Vorinostat (first compound 0.005 µM) it was 0.589; in the experiment with Alisertib + Vorinostat (first compound 0.01581 µM) it was 0.522; with Alisertib + Vorinostat (first compound 0.05 µM), 0.525. Besides, the relative viability in the experiment with Alisertib + Vorinostat (first compound 0.1581 µM) stood at 0.204; in the experiment with Alisertib + Vorinostat (first compound 0.5 µM) it was 0.177.

On to NCI-H1437, for which the relative viability is 0.241 with Alisertib + Palbociclib (first compound 0.005 µM); 0.289 with Alisertib + Palbociclib (first compound 0.01581 µM); 0.217 with Alisertib + Palbociclib (first compound 0.05 µM); 0.172 with Alisertib + Palbociclib (first compound 0.1581 µM); 0.144 with Alisertib + Palbociclib (first compound 0.5 µM); 0.855 with Alisertib + Crizotinib (first compound 0.005 µM). For the same cell line, the relative viability in the experiment with Alisertib + Crizotinib (first compound 0.01581 µM) was 0.878; in the experiment with Alisertib + Crizotinib (first compound 0.05 µM), 0.45; with Alisertib + Crizotinib (first compound 0.1581 µM) it was 0.338; with Alisertib + Crizotinib (first compound 0.5 µM) it was 0.141; with Alisertib + AZD7762 (first compound 0.005 µM), 1.07; with Alisertib + AZD7762 (first compound 0.01581 µM), 1.09. Moreover, the relative viability was 0.751 with Alisertib + AZD7762 (first compound 0.05 µM); 0.399 with Alisertib + AZD7762 (first compound 0.1581 µM); 0.201 with Alisertib + AZD7762 (first compound 0.5 µM); 0.774 in the experiment with Alisertib + Vorinostat (first compound 0.005 µM); 0.606 with Alisertib + Vorinostat (first compound 0.01581 µM); 0.42 with Alisertib + Vorinostat (first compound 0.05 µM). Besides, the figures for the relative viability with Alisertib + Vorinostat (first compound 0.1581 µM) and with Alisertib + Vorinostat (first compound 0.5 µM) were 0.283 and 0.213, respectively.
